Here are results for 1 compound from patent EP0009776A1, “N-monohydroxypropylamides, N-dihydroxypropylamides and their acetonoides of all-E and 13-Z retinoic acid, process for their preparation and pharmaceutical compositions containing them” (BASF Aktiengesellschaft, priority 1978, dated 1980).

The experiment has as its system Hamster-Tracheen-Gewebe. Description: Reversal of keratinization induced by vitamin A deficiency in hamster tracheal tissue (method of Clamon et al. / Sporn et al.). The experiment is classed as cell-based. The conditions noted are these: in 10^-8 molarer Lösung. An excerpt: Die erfindungsgemäßen Verbindungen sind in ihrer biologischen Aktivität den bekannten Retinsäureamiden der DE-OS 21 02 586 in etwa vergleichbar. Beispielsweise hebsowohl Retinsäure-N-(ß-hydroxy)-ethylamid als auch die erfindungsgemäßen Retinoide die durch Vitamin A-Hypovitamines induzierte Keratinisierung von Hamster-Tracheen-Gewebe noch in 10^-8 molarer Lösung vollständig auf. Die Methodik hierzu kann G.H. CLAMON et al Nature 250, 64 - 66 (1974) oder M.B. SPORN et al Nature 253, 47 - 50 (1975) entnommen werden. Die Keratinisierung wird als praekanzerotischer Prozes angesehen.

Each structure is given as a SMILES string.

Regarding `CC1=C(/C=C/C(C)=C/C=C/C(C)=C/C(=O)NCCO)C(C)(C)CCC1` [Retinsäure-N-(ß-hydroxy)-ethylamid], the “Aufhebung der durch Vitamin A-Hypovitamines induzierten Keratinisierung von Hamster-Tracheen-Gewebe” value is on record as “vollständig”.
